Measured values from PMC6368403, “Identification of a bilirubin receptor that may mediate a component of cholestatic itch” (eLife, 2019).

What was measured:
MRGPRC11 = target: T1, MRGPRC11 (Mus musculus, UniProt Q8CIP3); assay: Ca2+ imaging and concentration-Ca2+ response in HEK293 cells expressing MRGPRC11; format: cell-based; conditions: three replicates, Fig 2-N
T1 construct: expressed in transfected cells
T1 sequence (Q8CIP3 1-322): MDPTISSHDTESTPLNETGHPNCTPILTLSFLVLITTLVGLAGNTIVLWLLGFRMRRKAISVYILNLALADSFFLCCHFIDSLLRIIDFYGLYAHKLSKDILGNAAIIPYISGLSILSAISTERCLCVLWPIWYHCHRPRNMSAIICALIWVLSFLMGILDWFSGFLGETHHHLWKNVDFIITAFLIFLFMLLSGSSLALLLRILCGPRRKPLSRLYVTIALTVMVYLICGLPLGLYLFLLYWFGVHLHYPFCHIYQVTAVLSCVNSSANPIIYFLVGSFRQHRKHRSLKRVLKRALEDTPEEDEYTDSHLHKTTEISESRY
Protocol: All cultured cells were maintained in DMEM supplemented with 10% FBS and 1% Penicillin/Streptomycin at 37°C, 5% CO2. All data included were generated from cells tested for mycoplasma and found to be negative. Cells were imaged in calcium imaging buffer (CIB; 10 mM HEPES, 1.2 mM NaHCO3, 130 mM NaCl, 3 mM KCl, 2.5 mM CaCl2, 0.6 mM MgCl2, 20 mM glucose, and 20 mM sucrose at pH 7.4 and 290–300 mOsm). To monitor changes in intracellular [Ca^2+] ([Ca^2+]i), cells were loaded with either Fura 2-AM (HEK293 cells) or Fluo 4-AM (DRG neurons and mast cells) for 30 min in the dark at 37°C in CIB just prior to imaging. With Fura 2-AM, emission at 510 nm was monitored from excitation at both 340 nm and 380 nm. With Fluo 4-AM, emission at 520 nm was monitored from excitation at 488 nm. Cells were identified as responding if the intracellular [Ca^2+] rose by either 50% compared to baseline or 50% compared to the [Ca^2+]i change assayed during addition of 50 mM KCl (neurons only). Damaged, detached, high-baseline, and motion-activated cells were excluded from analysis.
In initial screens, HEK293 cells stably expressing the murine G-protein alpha-subunit Gα15, a unique Gα protein that non-selectively couples a large variety of GPCRs to phospholipase C ^30, were plated on poly-D-lysine-coated coverslips and transiently transfected with constructs encoding the MRGRPR of interest. 12–24 hr later, cells were loaded with the Fura 2-AM. Unless otherwise specified, compounds were perfused into the imaging chamber for approximately thirty seconds after a baseline period was established. Response was then monitored at 5 s intervals for an additional 60 s.
HEK293 cells stably expressing either MRGPRA1, MRGPRX4, and MRGRPC11 were seeded in poly-D-lysine-coated 96-well plates at 10,000 cells/well. Cells were loaded with Fura 2–AM, washed twice, and maintained in CIB. Haem metabolites were freshly dissolved in DMSO in dim light and then diluted into a buffer comprised of 20 mM Tris and 150 mM NaCl at pH 8.8. Potential changes in pH were evaluated prior to each experiment. EC50 values were determined from dose-responses performed in triplicate, repeated 2–4 times. To determine potential antagonism by QWF against bilirubin, cells were treated with varying doses of QWF for 1 min in CIB prior to application of agonist.
HEK293 stable cell lines expressing GFP-tagged MRGPRA3, MRGPRC11, MRGPRD, MRGPRX1, and MRGPRX2 were generated in previously described reports ([Liu et al., 2009]; [Liu et al., 2012]; [McNeil et al., 2015]). Briefly, plasmids containing the receptor of interest were transfected into HEK cells using Lipofectamine 3000. After 3 days, cells were then selected using 0.5 mg/mL G418. After 3 weeks, monoclonal colonies were established and each the highest expressing clones were identified. For this study, Mrgpra1 and MRGPRX4 were inserted into pEGFP-N1 and transfected into HEK293 cells. MRGPR-positive cells were selected using 0.5 mg/mL G418 for three weeks, after which GFP-positive cells were sorted by FACS and monoclonally expanded. Two lines expressing similar levels of MRGPRA1 and MRGPRX4, as measured by GFP fluorescence, were selected for study.

[1] = test system: small-diameter DRG sensory neurons; assay: Whole-cell current-clamp recording of DRG neurons; format: cell-based, mouse; conditions: 50 µM bilirubin
Protocol: DRG neurons from all spinal levels were collected in cold DH10 media (90% Dulbecco’s modified Eagle’s medium (DMEM)/F-12, 10% FBS, penicillin (100 U/mL), and streptomycin (100 μg/mL)). DRGs were digested with a dispase (5 mg/ml)/collagenase type I (1 mg/ml) enzyme mixture at 37°C for 45 min. After trituration, cells were spun at 300 g and re-suspended in DH10 before being plated on glass coverslips coated with poly-D-lysine (0.5 mg/ml) and laminin (10 μg/ml, Invitrogen). DRGs were cultured with DH10 supplemented with 50 ng/mL NGF at 37°C.
DRG neurons from 3 to 5 week old mice were collected as described. After culture for 1–3 days, DRG neurons were transferred into a chamber with extracellular solution containing (in mM) 144 NaCl, 2.5 KCl, 2 CaCl2, 0.5 MgCl2, 5 HEPES, and 10 glucose, adjusted to pH 7.4 with NaOH. Whole-cell current-clamp recordings were performed at ~23°C using borosilicate capillary glass electrodes (Sutter Instrument) with a tip resistance of 3–5 MΩ. Internal solution contained (in mM) 80 K-acetate, 30 KCl, 40 HEPES, and 1 CaCl2, adjusted to pH 7.4 with potassium hydroxide (KOH). Small-diameter neurons with diameter 15–25 μm were chosen for patch-clamp. Data were acquired using an […] Amplifier and Digidata 1322A Digitizer with pClamp9.2 software package (Axon Instrument). […] Solutions containing 50 mM KCl were applied at the end of each cellular recording. Only neurons that could fire action potentials after adding KCl were regarded as healthy and appropriate for inclusion in data analysis.

For C=CC1=C(C)/C(=C/c2[nH]c(Cc3[nH]c(/C=C4\NC(=O)C(C)=C4C=C)c(C)c3CCC(=O)O)c(CCC(=O)O)c2C)NC1=O [bilirubin, bilirubin IXα], the “Ca2+ response (concentration-Ca2+ response curve), replicate values” (“Ca2+ response” for short) (MRGPRC11; [Ligand] 3.90625e-6 M) was 0, the “Ca2+ response” value (MRGPRC11; [Ligand] 7.8125e-6 M) was 0 and the “Ca2+ response” value (MRGPRC11; [Ligand] 1.5625e-5 M) was 0. For the same compound, the “Ca2+ response” value (MRGPRC11; [Ligand] 3.125e-5 M) was 0, the “Ca2+ response” value (MRGPRC11; [Ligand] 6.25e-5 M) was 0 and the “Ca2+ response” value (MRGPRC11; [Ligand] 0.000125 M) was 0. For the same compound, the “Ca2+ response” value (MRGPRC11; [Ligand] 0.00025 M) was 0, the “Ca2+ response” value (MRGPRC11; [Ligand] 0.0005 M) was 0 and the “Small-diameter neurons in which action potentials were elicited” value (“Small-diameter neurons” for short) ([1]; A1 KO DRG) was 0 out of 60. For the same compound, the “Small-diameter neurons” value ([1]; A1 KO DRG, listed as Bilirubin) was 0 of 60, the “Small-diameter neurons” value ([1]; WT DRG) was 5 out of 50 and the “Small-diameter neurons” value ([1]; WT DRG, listed as Bilirubin) was 5 of 50.
